The results in this text go back to article PMC12040169 (PLOS Biology, 2025).

The nature of the data set: in vitro. Particulars: human, hela cells, % viability.

What is called viability is a read-out of living cells in per cent, often relative to untreated cells. For the molecule `CCOC(=O)c1sc2ncccc2c1N` [CBK115371], the viability at 28.5 h, 10 µM is 83.9%.

On to `O=C(O)C(Cc1ccccc1)N1C(=O)c2cccc([N+](=O)[O-])c2C1=O` (stereo not drawn) [CBK115372], for which the viability at 28.5 h, 10 µM is 95.8%.

On to `O=C1OC(c2ccccc2)=C/C1=C1/C(=O)Nc2ccccc21` [CBK115375], for which the viability at 28.5 h, 10 µM was determined as 102%.

For `CCOC(=O)c1sc2nc(C)ccc2c1N` [CBK115377], the viability at 28.5 h, 10 µM amounted to 96.5%.

On to `COc1ccc2c(c1)nc1n2CCC1OC(C)=O` (stereo not drawn) [CBK115379], for which the viability at 28.5 h, 10 µM came out at 100%.

As to `O=C1N=C(NC2CCCC2)OC12CCN(Cc1ccccc1)CC2` [CBK115430], the viability at 28.5 h, 10 µM is 103%.

Turning to `CS(=O)(=O)N1CC2(CCN(CCCOc3ccccc3)CC2)c2ccccc21` [CBK115457T], the viability at 28.5 h, 10 µM amounted to 106%.

Take `CS(=O)(=O)N1CC2(CCN(CCOCc3ccccc3)CC2)c2ccccc21` [CBK115458T]: the viability at 28.5 h, 10 µM was 96.4%.

Turning to `CS(=O)(=O)N1CC2(CCN(CC3COc4ccccc4O3)CC2)c2ccccc21` (stereo not drawn) [CBK115461T], the viability at 28.5 h, 10 µM worked out at 101%.

As for `CCCc1c(Cc2c(Cl)cccc2Cl)c(=O)n(C)n1C` [CBK115466], the viability at 28.5 h, 10 µM amounted to 93%.

Take `Cc1[nH]c(=O)[nH]c(=S)c1C(=O)Nc1ccc2[nH]c(C(F)(F)F)nc2c1` [CBK115494]: the viability at 28.5 h, 10 µM came to 95.2%.

`COc1cc(NC(=O)c2c(C)[nH]c(=O)[nH]c2=S)cc(C(F)(F)F)c1` [CBK115495]: the viability at 28.5 h, 10 µM amounted to 92.3%.

As to `COc1ccc(NC(=O)c2c(C)[nH]c(=O)[nH]c2=S)cc1OC` [CBK115517], the viability at 28.5 h, 10 µM was determined as 90.4%.

As to `Cc1[nH]c(=O)[nH]c(=S)c1C(=O)Nc1ccc2c(c1)OCO2` [CBK115519], the viability at 28.5 h, 10 µM was 100%.

For the molecule `NC(=O)c1ccccc1-c1cnc(N)c(-c2ccc(O)cc2)n1` [CBK115536], the viability at 28.5 h, 10 µM turned out to be 89.4%.

`Cc1ccccc1-c1cnc(N)c(-c2ccc(O)cc2)n1` [CBK115544]: the viability at 28.5 h, 10 µM is 95%.

Consider `CCOC(=O)c1ccc(-n2sc3ccccc3c2=O)cc1` [CBK115552], for which the viability at 28.5 h, 10 µM stood at 99.1%.

Consider `CN(C)S(=O)(=O)c1ccc2c(c1)nc1n2CCC1` [CBK115558], for which the viability at 28.5 h, 10 µM was found to be 71.4%.

Consider `CC(O)c1nc2ccccc2n1C` (stereo not drawn) [CBK115560], for which the viability at 28.5 h, 10 µM came to 94.9%.

For the molecule `Cc1[nH]c(=S)[nH]c(=O)c1Cc1cccc2ccccc12` [CBK115563], the viability at 28.5 h, 10 µM was 82.4%.

Regarding `CCOC(=O)c1ccc(NC(=O)c2c(O)[nH]c(=O)[nH]c2=O)cc1` [CBK115565], the viability at 28.5 h, 10 µM (bulk resorufin, single well) stood at 84.7%.

As to `O=C(c1ccco1)c1coc2ccc(O)cc12` [CBK115570], the viability at 28.5 h, 10 µM was 113%.

Consider `CC(O)c1nc2ccc(Cl)cc2[nH]1` (stereo not drawn) [CBK115573], for which the viability at 28.5 h, 10 µM came to 102%.

In the case of `CCn1c(C)nc2cc(Cl)c(Cl)cc21` [CBK115577], the viability at 28.5 h, 10 µM amounted to 89.3%.

Turning to `CCNC(=O)NCc1ccc(F)cc1` [CBK115581], the viability at 28.5 h, 10 µM is 84.9%.

Turning to `O=C(NCc1ccc(F)cc1)Nc1ccccc1F` [CBK115584], the viability at 28.5 h, 10 µM amounted to 98.9%.

With `COc1cccc(NC(=O)NCc2ccc(F)cc2)c1` [CBK115590], the viability at 28.5 h, 10 µM came out at 90.2%.

Take `CC(C)Nc1cncc(OC2CCN(C)C2)n1` (stereo not drawn) [CBK115598]: the viability at 28.5 h, 10 µM is 90.8%.

Take `CC(C)Nc1cncc(OCCN2CCOCC2)n1` [CBK115599]: the viability at 28.5 h, 10 µM came to 109%.

As for `CC(C)Nc1cncc(OCCCN(C)C)n1` [CBK115600], the viability at 28.5 h, 10 µM stood at 105%.

As to `CC(C)Nc1cncc(OCCN2CCNCC2)n1` [CBK115601], the viability at 28.5 h, 10 µM came out at 93.6%.

As for `CC(C)Nc1cncc(OCC2CN(C)CCN2C)n1` (stereo not drawn) [CBK115602], the viability at 28.5 h, 10 µM was 87.7%.

For `CC1(OCCCN2CCCCC2)SC(NC2CC3CCC2C3)=NC1=O` (stereo not drawn) [CBK115611], the viability at 28.5 h, 10 µM is 87.2%.

Consider `CC(C)(C)OC(=O)N1CCN(CCCOC2(C)SC(NC3CC4CCC3C4)=NC2=O)CC1` (stereo not drawn) [CBK115612], for which the viability at 28.5 h, 10 µM came to 95.9%.

Consider `N#Cc1cccc(-c2cnc(N)c(-c3ccc(O)cc3)n2)c1` [CBK115630], for which the viability at 28.5 h, 10 µM is 98%.

As for `CC(C)Nc1nccnc1OCCc1c[nH]c2ccccc12` [CBK115647], the viability at 28.5 h, 10 µM was 79.7%.

`CC(C)Nc1cncc(OCc2ccc(Cl)c(Cl)c2)n1` [CBK115653]: the viability at 28.5 h, 10 µM worked out at 87.5%.

For the molecule `c1cnc(N2CCCC2)c(OCc2ccsc2)n1` [CBK115664], the viability at 28.5 h, 10 µM came to 92.2%.

For the molecule `c1cc(COc2cncc(N3CCCC3)n2)cs1` [CBK115669], the viability at 28.5 h, 10 µM is 102%.

For `COc1cc2c3c([nH]c2cc1F)C1(CCN(CCOc2ccccc2)C1)NCC3` (stereo not drawn) [CBK115687T], the viability at 28.5 h, 10 µM was determined as 77.6%.

On to `O=C1N=C(NCc2ccccc2F)OC12CCN(Cc1ccccc1)CC2` [CBK115688], for which the viability at 28.5 h, 10 µM amounted to 96.2%.

With `COc1ccc(CC(=O)Nc2cccc(-c3ccc4c(c3)COC3(CCNCC3)O4)c2)c(OC)c1` [CBK115706], the viability at 28.5 h, 10 µM (bulk resorufin, single well) was 89.6%.

Consider `CCCc1n[nH]c(C(C)C)c1C(=O)OCC` [CBK115724], for which the viability at 28.5 h, 10 µM amounted to 98.7%.

Regarding `Cc1ncsc1CCOc1nccnc1NC(C)C` [CBK115728], the viability at 28.5 h, 10 µM came out at 106%.

Take `Cc1ncsc1CCOc1nc2cc(Cl)c(Cl)cc2nc1NC(C)C` [CBK115744]: the viability at 28.5 h, 10 µM was determined as 88.6%.

`Cc1cc(COc2nccnc2N2CCCC2)no1` [CBK115755]: the viability at 28.5 h, 10 µM came out at 91.3%.

In the case of `CSCCOc1nccnc1N1CCCC1` [CBK115757], the viability at 28.5 h, 10 µM worked out at 120%.

On to `c1cc(CCCOc2cncc(N3CCCC3)n2)ccn1` [CBK115760], for which the viability at 28.5 h, 10 µM worked out at 85.3%.

Regarding `CSCCOc1cncc(N2CCCC2)n1` [CBK115761], the viability at 28.5 h, 10 µM amounted to 101%.

`Clc1cc2nc(OCCCc3ccncc3)c(N3CCCC3)nc2cc1Cl` [CBK115774]: the viability at 28.5 h, 10 µM came to 98%.

Turning to `FC(F)(F)c1cccnc1OCc1cccnc1` [CBK115780], the viability at 28.5 h, 10 µM was found to be 101%.

Regarding `FC(F)(F)c1cccnc1OCCCc1ccncc1` [CBK115782], the viability at 28.5 h, 10 µM was determined as 93.9%.

As for `Cc1ncsc1CCOc1cc(C(F)(F)F)ccn1` [CBK115785], the viability at 28.5 h, 10 µM is 100%.

As for `Cc1ncsc1CCOc1ccc(C(F)(F)F)cn1` [CBK115790], the viability at 28.5 h, 10 µM stood at 101%.

Turning to `FC(F)(F)c1cccc(OCCCc2ccncc2)n1` [CBK115795], the viability at 28.5 h, 10 µM worked out at 98.8%.

Turning to `Oc1cccc(OCCOc2cccc(C(F)(F)F)n2)c1` [CBK115797], the viability at 28.5 h, 10 µM worked out at 84.7%.

For `Cc1cc(COc2nccc(C(F)(F)F)n2)no1` [CBK115800], the viability at 28.5 h, 10 µM came out at 88.7%.

`Cc1ncsc1CCOc1nc2ccccc2nc1C(F)(F)F` [CBK115802]: the viability at 28.5 h, 10 µM was determined as 95.2%.

For the molecule `FC(F)(F)c1nc2ccccc2nc1OCCCc1ccncc1` [CBK115804], the viability at 28.5 h, 10 µM amounted to 85.1%.

As for `FC(F)(F)c1nc2ccccc2nc1OC1CCOC1` (stereo not drawn) [CBK115806], the viability at 28.5 h, 10 µM was 99.6%.

For `c1ccc(NCCOc2nccnc2N2CCCC2)cc1` [CBK115814], the viability at 28.5 h, 10 µM is 87.9%.

For `c1ccc2nc(N3CCCC3)c(OCc3ccsc3)nc2c1` [CBK115819], the viability at 28.5 h, 10 µM turned out to be 90.2%.

Take `FC(F)(F)c1ccnc(OCCNc2ccccc2)c1` [CBK115824]: the viability at 28.5 h, 10 µM came out at 90.5%.

Regarding `FC(F)(F)c1ccnc(OCc2ccc(-c3ccccc3)cc2)c1` [CBK115826], the viability at 28.5 h, 10 µM came out at 108%.

As to `FC(F)(F)c1ccc(OCCNc2ccccc2)nc1` [CBK115828], the viability at 28.5 h, 10 µM stood at 101%.

As for `FC(F)(F)c1ccc(OCCOc2ccccc2)nc1` [CBK115829], the viability at 28.5 h, 10 µM was found to be 80.4%.

For `FC(F)(F)c1cccc(OCc2ccc(-c3ccccc3)cc2)n1` [CBK115836], the viability at 28.5 h, 10 µM worked out at 92.1%.

With `O=C1NC2(CCN(C(=O)c3ccc(C(F)(F)F)c(F)c3)CC2)Oc2ccc(-c3ccccc3)cc21` [CBK115841], the viability at 28.5 h, 10 µM came to 99.7%.

Take `N#Cc1ccc(C(=O)N2CCC3(CC2)NC(=O)c2cc(-c4ccoc4)ccc2O3)cc1` [CBK115852]: the viability at 28.5 h, 10 µM came to 88.9%.

`CC(=O)Nc1ccc(S(=O)(=O)N2CCC3(CC2)NC(=O)c2cc(-c4ccoc4)ccc2O3)cc1` [CBK115856]: the viability at 28.5 h, 10 µM stood at 113%.

`COc1cc2c(cc1OC)CN(C(=O)c1ccccn1)CC2` [CBK115864]: the viability at 28.5 h, 10 µM came out at 98.5%.

Take `COC(=O)c1sc2cc(C(F)(F)F)cnc2c1NC(=O)C1COc2ccccc2O1` (stereo not drawn) [CBK115865]: the viability at 28.5 h, 10 µM came out at 107%.

Take `COc1ccc2[nH]cc(CCNC(=O)c3ccccn3)c2c1` [CBK115866]: the viability at 28.5 h, 10 µM worked out at 95.7%.

`COCCCOc1nccnc1NC(C)C` [CBK115876]: the viability at 28.5 h, 10 µM was 90%.

For `CC(C)Nc1cc(OCc2cccnc2)ncn1` [CBK115883], the viability at 28.5 h, 10 µM was 91.3%.

Take `Cc1ncsc1CCOc1cc(NC(C)C)ncn1` [CBK115884]: the viability at 28.5 h, 10 µM was 84.8%.

`COCCCOc1cc(NC(C)C)ncn1` [CBK115885]: the viability at 28.5 h, 10 µM stood at 92.6%.

As to `CC(C)Nc1cc(OC2CCOC2)ncn1` (stereo not drawn) [CBK115888], the viability at 28.5 h, 10 µM was found to be 93.4%.

Take `c1cnc(N2CCCC2)c(OC2CCOC2)n1` (stereo not drawn) [CBK115891]: the viability at 28.5 h, 10 µM worked out at 91.2%.

On to `c1ncc(N2CCCC2)nc1OC1CCOC1` (stereo not drawn) [CBK115893], for which the viability at 28.5 h, 10 µM was 91.3%.

On to `COCCCOc1cc(N2CCCC2)ncn1` [CBK115896], for which the viability at 28.5 h, 10 µM worked out at 102%.

For `CSCCOc1cc(N2CCCC2)ncn1` [CBK115900], the viability at 28.5 h, 10 µM was determined as 90%.

Consider `Oc1cccc(OCCOc2nc3ccccc3nc2N2CCCC2)c1` [CBK115901], for which the viability at 28.5 h, 10 µM is 84.1%.

As to `Oc1cccc(OCCOc2nccc(C(F)(F)F)n2)c1` [CBK115903], the viability at 28.5 h, 10 µM is 92.7%.

As to `O=C(NCC1CCCN1)c1cc2cc(Cl)ccc2[nH]1` (stereo not drawn) [CBK115917C], the viability at 28.5 h, 10 µM was determined as 104%.

Consider `CC(C)(C)c1cc(C(=O)NCC2CCCN2)n(Cc2ccc(Cl)cc2Cl)n1` (stereo not drawn) [CBK115920C], for which the viability at 28.5 h, 10 µM was 96.1%.

In the case of `O=C(NCC1CCCN1)c1cc(C(=O)c2ccc(Cl)cc2Cl)c[nH]1` (stereo not drawn) [CBK115923C], the viability at 28.5 h, 10 µM is 86.1%.
